The results in this text go back to ChEMBL document CHEMBL1124936, “Synthesis and antifolate properties of 9-alkyl-10-deazaminopterins” (J Med Chem, 1990).

One assay concerns L1210. Briefly: Concentration inhibiting L1210 cell growth in culture. In kind it is functional, cell-based. The note with it: Mus musculus.
The target of assay [1] is T1, Dihydrofolate reductase (Homo sapiens, UniProt P00374).
T1 sequence (P00374 whole entry): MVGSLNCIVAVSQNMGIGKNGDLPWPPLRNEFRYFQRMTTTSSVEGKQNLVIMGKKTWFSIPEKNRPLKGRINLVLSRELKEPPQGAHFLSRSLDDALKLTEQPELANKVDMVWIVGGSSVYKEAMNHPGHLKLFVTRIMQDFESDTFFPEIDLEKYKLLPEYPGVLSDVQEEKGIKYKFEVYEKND
Briefly: Inhibitory activity towards dihydrofolate reductase derived from human manca leukemia cells.

For another assay, the target named is T2, Thymidylate synthase (Lactobacillus casei, UniProt P00469).
T2 sequence (P00469 whole entry): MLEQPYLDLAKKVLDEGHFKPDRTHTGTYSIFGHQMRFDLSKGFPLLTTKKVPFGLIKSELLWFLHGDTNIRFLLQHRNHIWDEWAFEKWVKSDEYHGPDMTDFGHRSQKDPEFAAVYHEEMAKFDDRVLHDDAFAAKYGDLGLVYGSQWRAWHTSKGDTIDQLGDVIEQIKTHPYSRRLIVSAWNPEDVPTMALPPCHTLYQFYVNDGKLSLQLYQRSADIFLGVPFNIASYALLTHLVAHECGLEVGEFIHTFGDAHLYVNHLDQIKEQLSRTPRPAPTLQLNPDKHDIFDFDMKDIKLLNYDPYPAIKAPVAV
Description: Concentration inhibiting thymidylate synthase enzyme of Lactobacillus casei. Further details: species or system Lacticaseibacillus casei.

Assay [2] deals with reduced folate carrier (Mus musculus). Briefly: Binding affinity towards Dihydrofolate reductase derived from L1210 cells using [3H]- MTX as the radioligand.
The target of assay [3] is T3, Dihydrofolate reductase (Mus musculus, UniProt P00375).
T3 sequence (P00375 whole entry): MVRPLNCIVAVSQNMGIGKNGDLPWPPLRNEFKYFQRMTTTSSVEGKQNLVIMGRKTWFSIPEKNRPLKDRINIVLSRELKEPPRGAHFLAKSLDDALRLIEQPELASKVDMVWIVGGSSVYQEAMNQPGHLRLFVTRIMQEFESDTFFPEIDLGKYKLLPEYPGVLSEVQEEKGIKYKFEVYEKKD
Description: Concentration inhibiting dihydrofolate reductase derived from L1210 cells. Format: cell-based.

The target of assay [4] is T3, Dihydrofolate reductase. Description: Concentration inhibiting Dihydrofolate reductase derived from L1210 cells. In kind it is cell-based.
A short description of assay [5]: Concentration inhibiting Glycinamide ribotide formyltransferase of Lactobacillus casei. Set-up: species or system Lacticaseibacillus casei.

One may read the IC50 as the concentration at which inhibition is half-maximal. The low end stands for higher potency, the high end for lower potency. In the assay on L1210, `CCC(Cc1cnc2nc(N)nc(N)c2n1)c1ccc(C(=O)N[C@@H](CCC(=O)O)C(=O)O)cc1` (some centres not stated) [EDATREXATE] yielded an IC50 of 0.65 nM. That is a sub-nanomolar value.

As for `CC(Cc1ccc(C(=O)NC(CCC(=O)O)C(=O)O)cc1)c1cnc2nc(N)nc(N)c2n1` (configuration not stated), the values for the IC50 against Dihydrofolate reductase [1], with L1210 and at Thymidylate synthase were 40 nM, 0.24 nM and over 100000 nM, respectively.

Broadly, the Ki is a measure of affinity in units of concentration, obtained from inhibition or displacement. On to `Nc1nc(N)c2nc(CCc3ccc(C(=O)N[C@@H](CCC(=O)O)C(=O)O)cc3)cnc2n1`, for which the Ki in assay [2] turned out to be 1200 nM; on Dihydrofolate reductase [3], 0.0034 nM. This molecule also had an IC50 in the assay with L1210 of 1.5 nM.

As for `CN(Cc1cnc2nc(N)nc(N)c2n1)c1ccc(C(=O)N[C@@H](CCC(=O)O)C(=O)O)cc1` [METHOTREXATE], the IC50 in the assay on L1210 came out at 5 nM.

For the molecule `CCC(Cc1ccc(C(=O)NC(CCC(=O)O)C(=O)O)cc1)c1cnc2nc(N)nc(N)c2n1` (configuration not stated), the Ki on Dihydrofolate reductase [4] stood at 0.0055 nM. Moreover, the IC50 was over 50000 nM in assay [5], 4.7 nM in the assay on L1210 and over 100000 nM against Thymidylate synthase.
